Results reported in patent US4758558A, “N-(substituted)-[7-(2-cyanoacetamido)cephalosporanic]amide derivatives having antibiotic utility” (priority 1982, dated 1988).

Legend:
Escherichia coli = test: Effect on intestinal bacteria: number of Escherichia coli in feces; assay type: in vivo, ICR mice; settings: after oral administration for 2 days, 500 mg/kg/day, female ICR mice; before: 6.4
Protocol: (b) Effect on the intestinal bacterial colonies:
[…] Each portion of the two kinds of the feces was cultured at 25° C. or 37° C. in a variety of culture medium for one to five days to see the state of Escherichia coli, Pseudomonas aeruginosa, a Streptococcus species, a Lactobacillus species, Lactobacillus bifidus and a Bacteroides species in the culture medium.
(§1) Effects of the present compound on intestinal bacteria
Each of the two fecal […] by weight of an anaerobic diluent (a phosphoric acid buffer solution) and was ground in a mortar, and 0.1 ml of the thus ground material was smeared on each of the following culture media for the following bacteria, and the thus inoculated culture media were incubated under the following conditions. Thereafter, the number of the following bacteria in each of the thus cultured media was determined.

Pseudomonas aeruginosa = test: Effect on intestinal bacteria: number of Pseudomonas aeruginosa in feces; assay type: in vivo, ICR mice; settings: mouse, in vivo, po, 500 mg/kg/day
Protocol: as §1
(§2) Each of the present compounds respectively produced in Examples 1 to 18 was orally administered continuously for 2 days at a daily dose rate of 500 mg/kg body weight to each of five female ICR mice of each group after 6 weeks of their birth.
(§3) Each of the two fecal specimens respectively collected from each mouse before and after one day of the administration was diluted with 100 times by weight of an anaerobic diluent (a phosphoric acid buffer solution) and was ground in a mortar, and 0.1 ml of the thus ground material was smeared on each of the following culture media for the following bacteria, and the thus inoculated culture media were incubated under the following conditions. Thereafter, the number of the following bacteria in each of the thus cultured media was determined.
NAC agar 37° C., one day, […]

[1] = tested on: a species of Streptococcus; test: Effect on intestinal bacteria: number of a sp. of Streptococcus in feces; assay type: in vivo, ICR mice; settings: mouse, in vivo, po, 500 mg/kg/day
Protocol: (§4) (b) Effect on the intestinal bacterial colonies: […]
as §1, §2, §3
a species of Streptococcus
TATAC agar 37° C., one day, […]

[2] = tested on: a species of Lactobacillus; test: Effect on intestinal bacteria: number of a sp. of Lactobacillus in feces; assay type: in vivo, ICR mice; settings: mouse, in vivo, po, 500 mg/kg/day
Protocol: as §4, §1, §2, §3
a species of Lactobacillus
LBS agar 37° C., 5 days, […]

Lactobacillus bifidus = test: Effect on intestinal bacteria: number of Lactobacillus bifidus in feces; assay type: in vivo, ICR mice; settings: mouse, in vivo, po, 500 mg/kg/day
Protocol: as §4, §1, §2, §3
BS agar 37° C., 5 days, […]

a species of Bacteroides = test: Effect on intestinal bacteria: number of a sp. of Bacteroides in feces; assay type: in vivo, ICR mice; settings: mouse, in vivo, po, 500 mg/kg/day
Protocol: as §4, §1, §2, §3
a species of Bacteroides
NBGT agar 37° C., 5 days, […]

[3] = tested on: Escherichia coli IFO 12734; test: Antibacterial activity in vitro (MIC) against Escherichia coli; assay type: cell-based; settings: IFO12734, Mueller-Hinton agar, 18 to 24 hours, 37° C., read-out: MIC (minimum growth inhibiting concentration) against Escherichia coli
Protocol: (§5) (c) Anti-bacterial activity (in vitro):
(§6) Minimum concentration of the present compound inhibiting the growth of the following bacteria was determined according to the standard procedures of Japan Society of Chemotherapy:
Escherichia coli IFO 12734 and
(§7) Determination of the antibacterial activity of the present compound produced in Examples 1 to 18, respectively was carried out according to the standard procedures of Japan Society of Chemotherapy for finding MIC (the minimum concentration of a specimen to inhibit the growth of a species of bacteria).
(§8) A series of diluted solutions of each of the present compound were mixed with 9 times by weight of Mueller-Hinton's culture medium as the culture medium for determining the sensitivity of a bacterial species, and flat agar culture plates were prepared by using the thus obtained mixture.
(§9) Each of the liquids respectively containing one of the bacterial species shown in Table 2 was smeared onto each of the thus prepared flat agar culture plates with a platinum loop, in length of about 2 cm, and the thus treated plates were incubated for 18 to 24 hours at 37° C. Thereafter, by observing the growth state of each bacterial species on the cultured plates, the minimum concentration of each compound completely inhibiting the growth of each bacterial species was found.

[4] = tested on: Staphylococcus aureus IAM 1011; test: Antibacterial activity in vitro (MIC) against Staphylococcus aureus; assay type: cell-based; settings: IAM1011, Mueller-Hinton agar, 18 to 24 hours, 37° C., read-out: MIC (minimum growth inhibiting concentration) against Staphylococcus aureus
Protocol: as §5, §6
Staphylococcus aureus IAM 1011
as §7, §8, §9

Compound	Number of Escherichia coli after the administration (Escherichia coli)	Number of Pseudomonas aeruginosa after the administration (Pseudomonas aeruginosa)	Number of a sp. of Streptococcus after the administration [1]	Number of a sp. of Lactobacillus after the administration [2]	Number of Lactobacillus bifidus after the administration (Lactobacillus bifidus)	Number of a sp. of Bacterioides after the administration (a species of Bacteroides)	MIC [3] [µg/mL]	MIC [4] [µg/mL]
COC(=O)CNC(=O)c1ccc(NC(=O)C2=C(CSc3nnc(C)s3)CSC3C(NC(=O)Cn4cnnn4)C(=O)N23)cc1 (stereo not shown) [Example 15, N-(4-carbomethoxymethylcarbamoylphenyl)-{7-(1-1H-tetrazolylacetamido)-3-[2-(5-methyl-1,3,4-thiadiazolyl)thiomethyl]-3-cephem-4-carboxylic}amide]	6.5 Log10 (number of bacteria/g feces)	< 3.0 Log10 (number of bacteria/g feces)	6.8 Log10 (number of bacteria/g feces)	9.1 Log10 (number of bacteria/g feces)	8.2 Log10 (number of bacteria/g feces)	8.2 Log10 (number of bacteria/g feces)	≥ 100	≥ 12.5
COC(=O)CNC(=O)c1ccc(NC(=O)C2=C(COC(C)=O)CSC3C(NC(=O)CC#N)C(=O)N23)cc1 (stereo not shown) [Example 9, N-(4-carbomethoxymethylcarbamoylphenyl)-[7-(2-cyanoacetamido)cephalosporanic]amide]	6.5 Log10 (number of bacteria/g feces)	< 3.0 Log10 (number of bacteria/g feces)	6.7 Log10 (number of bacteria/g feces)	8.9 Log10 (number of bacteria/g feces)	8.4 Log10 (number of bacteria/g feces)	8.5 Log10 (number of bacteria/g feces)	≥ 100	≥ 100
COC(=O)Cc1ccc(NC(=O)C2=C(COC(C)=O)CSC3C(NC(=O)CC#N)C(=O)N23)cc1 (stereo not shown) [Example 8, N-(4-carbomethoxymethylphenyl)-7-[(2-cyanoacetamido)cephalosporanic]amide]	6.6 Log10 (number of bacteria/g feces)	< 3.0 Log10 (number of bacteria/g feces)	6.6 Log10 (number of bacteria/g feces)	9.1 Log10 (number of bacteria/g feces)	8.4 Log10 (number of bacteria/g feces)	8.9 Log10 (number of bacteria/g feces)	≥ 100	≥ 100

Continued, values first:

Number of Escherichia coli after the administration (Escherichia coli)	Number of Pseudomonas aeruginosa after the administration (Pseudomonas aeruginosa)	Number of a sp. of Streptococcus after the administration [1]	Number of a sp. of Lactobacillus after the administration [2]	Number of Lactobacillus bifidus after the administration (Lactobacillus bifidus)	Number of a sp. of Bacterioides after the administration (a species of Bacteroides)	MIC [3] [µg/mL]	MIC [4] [µg/mL]	Compound
6.8 Log10 (number of bacteria/g feces)	< 3.0 Log10 (number of bacteria/g feces)	6.7 Log10 (number of bacteria/g feces)	9.1 Log10 (number of bacteria/g feces)	8.2 Log10 (number of bacteria/g feces)	8.6 Log10 (number of bacteria/g feces)	≥ 100	≥ 100	CC(=O)OCC1=C(C(=O)Nc2ccc(C(N)=O)cn2)N2C(=O)C(NC(=O)CC#N)C2SC1 (stereo not shown) [Example 11, N-(nicotinic amido)-[7-(2-cyanoacetamido)cephalosporanic]amide]
6.5 Log10 (number of bacteria/g feces)	< 3.0 Log10 (number of bacteria/g feces)	6.7 Log10 (number of bacteria/g feces)	9.1 Log10 (number of bacteria/g feces)	8.5 Log10 (number of bacteria/g feces)	8.1 Log10 (number of bacteria/g feces)	≥ 100	≥ 50	COC(=O)CNC(=O)c1ccc(NC(=O)C2=C(COC(C)=O)CSC3C(NC(=O)CSc4ccncc4)C(=O)N23)cc1 (stereo not shown) [Example 3, N-(4-carbomethoxymethylcarbamoylphenyl)-[7-(4-pyridylthioacetamido)cephalosporanic]amide]
